Values joined by “and” are separate entries in the source; they are usually repeats but may differ in a detail not shown here. Equal entries are not always repeated.
Columns and labels:
Soy = assay: Tolerance rates for soybean (injury score 0-9)
Corn = assay: Tolerance rates for corn (injury score 0-9)

In the case of `CCOc1cc(Oc2ccc(C(F)(F)F)cc2Cl)ccc1[N+](=O)[O-]` [Oxyfluorfen], the injury score (Soy; Oxyfluorfen 600 g ai/ha, amino acid substitution L397D_F420V Event A, SEQ ID NO 2) is reported as 4 and 5 and 6 and 9, the injury score (Soy; Oxyfluorfen 600 g ai/ha, amino acid substitution L397D_F420V Event B, SEQ ID NO 2) is reported as 6 and 4 and 8 and 5 and the injury score (Soy; Oxyfluorfen 600 g ai/ha, amino acid substitution none, SEQ ID NO none) is reported as 8 and 7 and 9. The injury score (Soy; Oxyfluorfen 1200 g ai/ha, amino acid substitution L397D_F420V Event A, SEQ ID NO 2) was 5 and 4 and 3, the injury score (Soy; Oxyfluorfen 1200 g ai/ha, amino acid substitution L397D_F420V Event B, SEQ ID NO 2) was 5 and 4 and 6 and the injury score (Soy; Oxyfluorfen 1200 g ai/ha, amino acid substitution none, SEQ ID NO none) was 9 and 8.
In the case of `C#CCN1C(=O)COc2cc(F)c(N3C(=O)C4=C(CCCC4)C3=O)cc21` [flumioxazin], the injury score (Soy; Flumioxazin 150 g ai/ha, amino acid substitution L397D_F420V Event A, SEQ ID NO 2) is reported as 9 and 6 and 5 and 4, the injury score (Soy; Flumioxazin 150 g ai/ha, amino acid substitution L397D_F420V Event B, SEQ ID NO 2) is reported as 5 and 6 and 4 and the injury score (Soy; Flumioxazin 150 g ai/ha, amino acid substitution none, SEQ ID NO none) is reported as 9.
In the case of `CS(=O)(=O)NC(=O)c1cc(Oc2ccc(C(F)(F)F)cc2Cl)ccc1[N+](=O)[O-]` [fomesafen], the injury score (Soy; Fomesafen 600 g ai/ha, amino acid substitution L397D_F420V Event A, SEQ ID NO 2) is reported as 1 and 2 and 0 and 4, the injury score (Soy; Fomesafen 600 g ai/ha, amino acid substitution L397D_F420V Event B, SEQ ID NO 2) is reported as 2 and 4 and 1 and 3 and the injury score (Soy; Fomesafen 600 g ai/ha, amino acid substitution none, SEQ ID NO none) is reported as 5 and 4.
In the case of `CC(C)N(C)S(=O)(=O)NC(=O)c1cc(-n2c(=O)cc(C(F)(F)F)n(C)c2=O)c(F)cc1Cl` [saflufenacil], the injury score (Soy; Soy, saflufenacil 12.5 g ai/ha, amino acid substitution F420L, SEQ ID NO 2) is reported as 1 and 0 and 3, the injury score (Soy; Soy, saflufenacil 12.5 g ai/ha, amino acid substitution L369D, F392V, SEQ ID NO 40) is reported as 9 and 7 and 4 and 5 and 6 and the injury score (Soy; Soy, saflufenacil 12.5 g ai/ha, amino acid substitution L397E, SEQ ID NO 2) is reported as 5 and 4 and 0 and 3. The injury score (Soy; Soy, saflufenacil 12.5 g ai/ha, amino acid substitution L397Q, SEQ ID NO 2) was 4, the injury score (Soy; Soy, saflufenacil 12.5 g ai/ha, amino acid substitution none, SEQ ID NO 2) was 2 and 4 and 7 and 8 and 5 and the injury score (Soy; Soy, saflufenacil 12.5 g ai/ha, amino acid substitution none, SEQ ID NO 40) was 9 and 3 and 4 and 8 and 7. The injury score (Soy; Soy, saflufenacil 25 g ai/ha, amino acid substitution F420L, SEQ ID NO 2) was 9 and 0 and 2, the injury score (Soy; Soy, saflufenacil 25 g ai/ha, amino acid substitution L369D, F392V, SEQ ID NO 40) was 9 and 5 and 6 and 7 and 4 and the injury score (Soy; Soy, saflufenacil 25 g ai/ha, amino acid substitution L397D, SEQ ID NO 2) was 7 and 2 and 9 and 5 and 3. The injury score (Soy; Soy, saflufenacil 25 g ai/ha, amino acid substitution L397E, SEQ ID NO 2) was 3 and 6 and 4 and 5 and 1, the injury score (Soy; Soy, saflufenacil 25 g ai/ha, amino acid substitution L397Q, SEQ ID NO 2) was 3 and the injury score (Soy; Soy, saflufenacil 25 g ai/ha, amino acid substitution none, SEQ ID NO 2) was 4 and 3 and 7 and 9 and 8. The injury score (Soy; Soy, saflufenacil 25 g ai/ha, amino acid substitution none, SEQ ID NO 40) was 9 and 6, the injury score (Soy; Soy, saflufenacil 50 g ai/ha, amino acid substitution F420L, SEQ ID NO 2) was 9 and 0 and 2 and the injury score (Soy; Soy, saflufenacil 50 g ai/ha, amino acid substitution L369D, F392V, SEQ ID NO 40) was 9 and 6 and 7 and 5. The injury score (Soy; Soy, saflufenacil 50 g ai/ha, amino acid substitution L397D, SEQ ID NO 2) was 9 and 4 and 3 and 6 and 5, the injury score (Soy; Soy, saflufenacil 50 g ai/ha, amino acid substitution L397E, F420M, SEQ ID NO 2) was 1 and 0 and 2 and the injury score (Soy; Soy, saflufenacil 50 g ai/ha, amino acid substitution L397E, SEQ ID NO 2) was 3 and 6 and 4 and 7. The injury score (Soy; Soy, saflufenacil 50 g ai/ha, amino acid substitution L397Q, F420M, SEQ ID NO 2) was 0 and 6 and 1 and 5 and 4, the injury score (Soy; Soy, saflufenacil 50 g ai/ha, amino acid substitution L397Q, F420V, SEQ ID NO 2) was 0 and 7 and the injury score (Soy; Soy, saflufenacil 50 g ai/ha, amino acid substitution L397Q, SEQ ID NO 2) was 8. The injury score (Soy; Soy, saflufenacil 50 g ai/ha, amino acid substitution none, SEQ ID NO 2) was 7 and 8 and 9 and 6, the injury score (Soy; Soy, saflufenacil 50 g ai/ha, amino acid substitution none, SEQ ID NO 40) was 9 and 8 and the injury score (Soy; Soy, saflufenacil 100 g ai/ha, amino acid substitution F420L, SEQ ID NO 2) was 9. For the same compound, the injury score (Soy; Soy, saflufenacil 100 g ai/ha, amino acid substitution L369D, F392V, SEQ ID NO 40) was 9 and 6, the injury score (Soy; Soy, saflufenacil 100 g ai/ha, amino acid substitution L397D, SEQ ID NO 2) was 9 and 4 and 6 and 5 and the injury score (Soy; Soy, saflufenacil 100 g ai/ha, amino acid substitution L397E, F420M, SEQ ID NO 2) was 2 and 0 and 1. The injury score (Soy; Soy, saflufenacil 100 g ai/ha, amino acid substitution L397Q, F420M, SEQ ID NO 2) was 0 and 7 and 3 and 6 and 1 and 2, the injury score (Soy; Soy, saflufenacil 100 g ai/ha, amino acid substitution L397Q, F420V, SEQ ID NO 2) was 0 and 7 and the “Tolerance rate (injury score), Saflufenacil 25 g ai/ha” value (Corn; Corn events with PPO L397D, F420M (SEQ ID NO 2), Saflufenacil 25 g ai/ha) was 2 and 3 and 1. The “Tolerance rate (injury score), Saflufenacil 50 g ai/ha” value (Corn; Corn events with PPO L397D, F420M (SEQ ID NO 2), Saflufenacil 50 g ai/ha) was 1 and 2 and 3 and 0, the “Tolerance rate (injury score), Saflufenacil 100 g ai/ha” value (Corn; Corn events with PPO L397D, F420M (SEQ ID NO 2), Saflufenacil 100 g ai/ha) was 7 and 3 and the “Tolerance rate (injury score), Saflufenacil 100 g ai/ha” value (Corn; Corn events with PPO L397E, F420M (SEQ ID NO 2), Saflufenacil 100 g ai/ha) was 1 and 0 and 7. For the same compound, the “Tolerance rate (injury score), Saflufenacil 100 g ai/ha” value (Corn; Corn events with PPO L397Q (SEQ ID NO 2), Saflufenacil 100 g ai/ha) was 4 and 5, the “Tolerance rate (injury score), Saflufenacil 100 g ai/ha” value (Corn; Corn events with PPO L397Q, F420M (SEQ ID NO 2), Saflufenacil 100 g ai/ha) was 0 and 1 and the “Tolerance rate (injury score), Saflufenacil 100 g ai/ha” value (Corn; Corn events with PPO L397Q, F420V (SEQ ID NO 2), Saflufenacil 100 g ai/ha) was 4 and 2 and 3 and 7 and 5. For the same compound, the “Tolerance rate (injury score), Saflufenacil 100 g ai/ha” value (Corn; Corn events, amino acid substitution not given, Saflufenacil 100 g ai/ha) was 1, the “Tolerance rate (injury score), corn” value (Corn; Saflufenacil 25 g ai/ha, corn events 37-53, amino acid substitution not given) was 6 and 7 and 5 and 8 and 4 and the “Tolerance rate (injury score), corn” value (Corn; Saflufenacil 25 g ai/ha, corn events with PPO substitution F420L (SEQ ID NO 2)) was 6 and 7. For the same compound, the “Tolerance rate (injury score), corn” value (Corn; Saflufenacil 25 g ai/ha, corn events with PPO substitution F420M (SEQ ID NO 2)) was 4 and 6 and 8 and 7 and 5, the “Tolerance rate (injury score), corn” value (Corn; Saflufenacil 25 g ai/ha, corn events with PPO substitution L397D, F420V (SEQ ID NO 2)) was 6 and 5 and 7 and the “Tolerance rate (injury score), corn” value (Corn; Saflufenacil 25 g ai/ha, corn events with PPO substitution L397E, F420V (SEQ ID NO 2)) was 1 and 0 and 3. The “Tolerance rate (injury score), corn” value (Corn; Saflufenacil 50 g ai/ha, corn events 54-81, amino acid substitution not given) was 6 and 7 and 4 and 5, the “Tolerance rate (injury score), corn” value (Corn; Saflufenacil 50 g ai/ha, corn events with PPO substitution F420L (SEQ ID NO 2)) was 7 and 8 and 6 and the “Tolerance rate (injury score), corn” value (Corn; Saflufenacil 50 g ai/ha, corn events with PPO substitution F420M (SEQ ID NO 2)) was 7 and 6 and 8. The “Tolerance rate (injury score), corn” value (Corn; Saflufenacil 50 g ai/ha, corn events with PPO substitution L397D, F420V (SEQ ID NO 2)) was 4 and 6 and 7, the “Tolerance rate (injury score), corn” value (Corn; Saflufenacil 50 g ai/ha, corn events with PPO substitution L397E, F420V (SEQ ID NO 2)) was 1 and 0 and 2 and 3 and the “Tolerance rate (injury score), corn” value (Corn; Saflufenacil 100 g ai/ha, corn events with PPO substitution F420L (SEQ ID NO 2)) was 8 and 7 and 6. For the same compound, the “Tolerance rate (injury score), corn” value (Corn; Saflufenacil 100 g ai/ha, corn events with PPO substitution L397E, F420V (SEQ ID NO 2)) was 0 and 1 and 3 and 2.
With `Cc1nn(-c2cc(NS(C)(=O)=O)c(Cl)cc2Cl)c(=O)n1C(F)F` [sulfentrazone] the injury score (Soy; Sulfentrazone 350 g ai/ha, amino acid substitution L397D_F420V Event A, SEQ ID NO 2) was 9 and 6 and 3 and 5, the injury score (Soy; Sulfentrazone 350 g ai/ha, amino acid substitution L397D_F420V Event B, SEQ ID NO 2) was 4 and 5 and 6 and the injury score (Soy; Sulfentrazone 350 g ai/ha, amino acid substitution none, SEQ ID NO none) was 9 and 7 and 8. The injury score (Soy; Sulfentrazone 700 g ai/ha, amino acid substitution L397D_F420V Event A, SEQ ID NO 2) was 2 and 3 and 7 and 1 and 4 and 6, the injury score (Soy; Sulfentrazone 700 g ai/ha, amino acid substitution L397D_F420V Event B, SEQ ID NO 2) was 4 and 5 and 6 and the injury score (Soy; Sulfentrazone 700 g ai/ha, amino acid substitution none, SEQ ID NO none) was 9.
